Structures can show the parent of a compound that is named as a salt. Where two headings read alike, the source gives them in different places.
What was measured:
LEWIS LUNG cells = experiment: sulforhodamine B cytotoxicity assay, 72 hour drug exposure, Lewis lung; assay type: cell-based
C3H10T1/2 cells = experiment: sulforhodamine B cytotoxicity assay, 72 hour drug exposure, C3H10T1/2; assay type: cell-based; conditions: Mus musculus, C3H 10T1/2
Method: (§1) These studies were performed using a sulforrhodamine B assay (see Monks et al., J. Natl. Cancer Inst. (U.S.) 83:757 ([…])). Compounds were dissolved in ethanol. Results from these studies, presented in the following tables, are expressed as Gl50 values, that is, concentration of a drug (micromolar) required to inhibit growth of fifty percent of the cells.

RPMI 7666 cells = experiment: sulforhodamine B cytotoxicity assay, 72 hour drug exposure, RPMI 7666; assay type: cell-based
Method: as §1

A549 cells = experiment: sulforhodamine B cytotoxicity assay, 72 hour drug exposure, A549; assay type: cell-based
U937 cells = experiment: sulforhodamine B cytotoxicity assay, 72 hour drug exposure, U937; assay type: cell-based; conditions: Homo sapiens, U-937
Method: as §1

MCF7 cells = experiment: sulforhodamine B cytotoxicity assay, 72 hour drug exposure, MCF7; assay type: cell-based
MCF7/ADR cells = experiment: sulforhodamine B cytotoxicity assay, 72 hour drug exposure, MCF7/ADR; assay type: cell-based
OVCAR 3 cells = experiment: sulforhodamine B cytotoxicity assay, 72 hour drug exposure, OVCAR 3; assay type: cell-based
HT 29 cells = experiment: sulforhodamine B cytotoxicity assay, 72 hour drug exposure, HT 29; assay type: cell-based
P388/ADR cells = experiment: sulforhodamine B cytotoxicity assay, 72 hour drug exposure, P388/ADR; assay type: cell-based; conditions: Mus musculus
Method: as §1

P388 cells = experiment: sulforhodamine B cytotoxicity assay, 72 hour drug exposure, P388; assay type: cell-based; conditions: Mus musculus
Method: as §1

P-388 cells [1] = experiment: % survival, trypan blue exclusion assay, without serum, P-388; assay type: cell-based; conditions: bioactive lipid dose = 20 uM, 2880 min
CAKI 1 cells = experiment: sulforhodamine B cytotoxicity assay, 72 hour drug exposure, CAKI 1; assay type: cell-based
RPMI-7666 cells [2] = experiment: % survival, trypan blue exclusion assay, without serum, RPMI-7666; assay type: cell-based; conditions: bioactive lipid dose = 20 uM, 2880 min
P-388 cells [3] = experiment: % survival, trypan blue assay, with serum, P-388; assay type: cell-based; conditions: bioactive lipid dose = 20 uM
U-937 cells [4] = experiment: % survival, trypan blue exclusion assay, without serum, U-937; assay type: cell-based; conditions: bioactive lipid dose = 20 uM, 2880 min
U-937 cells [5] = experiment: % survival, trypan blue assay, with serum, U-937; assay type: cell-based; conditions: bioactive lipid dose = 20 uM
RPMI-7666 cells [6] = experiment: % survival, trypan blue assay, with serum, RPMI-7666; assay type: cell-based; conditions: bioactive lipid dose = 20 uM
SKMEL 28 cells = experiment: sulforhodamine B cytotoxicity assay, 72 hour drug exposure, SKMEL 28; assay type: cell-based
mice = experiment: in vivo toxicity after i.v. injection in mice
[7] = Homo sapiens, NCI/ADR-RES, 72 h

| SMILES | GI50 (LEWIS LUNG cells; Lewis lung carcinoma) | GI50 (C3H10T1/2 cells) | GI50 (RPMI 7666 cells) | GI50 (A549 cells; Homo sapiens) | GI50 (U937 cells) | GI50 (MCF7 cells; Homo sapiens, MCF7, 72 h) | GI50 (MCF7/ADR cells; [7]) | GI50 (OVCAR 3 cells; Homo sapiens, OVCAR-3, 72 h) | GI50 (A549 cells; Homo sapiens, A549, 72 h) | GI50 (HT 29 cells; Homo sapiens, HT-29, 72 h) | GI50 (CAKI 1 cells; Homo sapiens, CAKI-1, 72 h) | GI50 (LEWIS LUNG cells; Lewis lung carcinoma, 72 h) | GI50 (SKMEL 28 cells; Homo sapiens, SK-MEL-28, 72 h) | further results |
| --- | --- | --- | --- | --- | --- | --- | --- | --- | --- | --- | --- | --- | --- | --- |
| CCCCCCCCCCCCC/C=C/[C@@H](O)[C@H](CO[Si](C)(C)C(C)(C)C)NC(=O)CCCCC [1-TBDMS C6-Ceramide, 1-TBDMS C6-Cer] | > 200 µM | > 161 µM | > 200 µM | > 200 µM | > 200 µM | – | – | – | – | – | – | – | – | – |
| CCCCCCCCCCCCC/C=C/[C@@H](OC(=O)CCC)[C@H](CO[Si](C)(C)C(C)(C)C)NC(=O)CCCCC [1-TBDMS-3-Butyrate C6-Cer, 1-TBDMS,3-butyrate, C6-Cer] | > 200 µM | > 200 µM | > 200 µM | > 200 µM | > 200 µM | – | – | – | – | – | – | – | – | – |
| CCCCCCCCCCCCC/C=C/[C@@H](O[Si](C)(C)C(C)(C)C)[C@H](CO)NC(=O)CCCCC [3-TBDMS C6-Ceramide, 3-TBDMS C6-Cer] | > 200 µM | > 200 µM | > 200 µM | > 200 µM | > 200 µM | – | – | – | – | – | – | – | – | – |
| CCCCCCCCCCCCCC(O)C(O)[C@@H](O)[C@H](CO)NC(=O)CCCCC (stereo partly shown) [4,5-Diol C6-Ceramide, 4,5-diol C6-Cer] | – | – | – | – | – | 20.7 ± 0.1 µM | 28.3 ± 1.1 µM | 38.2 ± 2.3 µM | 25.1 ± 0.3 µM | 14.6 ± 0.4 µM | – | – | – | GI50 (LEWIS LUNG cells; Mus musculus, Lewis lung carcinoma, 72 h): 15.2 µM |
| CCCCCCCCCCCCC/C=C/[C@@H](O)[C@H](CO)NC(=O)CCCCC [C6-Ceramide, C6-ceramide, reference compound] | – | 14 ± 2.5 µM | 8.5 ± 3.5 µM | – | 7 ± 1.7 µM | 24.2 ± 8.5 µM | 36 ± 0.88 µM | 15.2 ± 1.77 µM | 12 ± 4.8 µM | 4 ± 0.2 µM | 6.04 ± 0.23 µM | 9.6 ± 4.4 µM | 13.3 ± 2.51 µM | GI50 (MCF7 cells; listed as Cer-C6): 12.7 ± 0.14 µM; GI50 (P388/ADR cells): 12.7 ± 1.7 µM; GI50 (P388 cells): 6.24 ± 0.3 µM; % Survival (by trypan blue exclusion assay) (P-388 cells [1]): 55.4%; GI50 (CAKI 1 cells; listed as Cer-C6): 5.88 ± 0.1 µM; GI50 (LEWIS LUNG cells; listed as Cer-C6): 5.81 µM; % Survival (by trypan blue exclusion assay) (RPMI-7666 cells [2]): 79%; % Survival (by trypan blue assay) (P-388 cells [3]): 84.5%; % Survival (by trypan blue exclusion assay) (U-937 cells [4]): 82.6%; GI50 (MCF7/ADR cells): 36 ± 0.88 µM; GI50 (MCF7/ADR cells; listed as Cer-C6): 26.1 ± 0.85 µM; GI50 (A549 cells; listed as Cer-C6): 8.08 ± 0.06 µM; % Survival (by trypan blue assay) (U-937 cells [5]): 97%; % Survival (by trypan blue assay) (RPMI-7666 cells [6]): 89.2%; GI50 (HT 29 cells; listed as Cer-C6): 4.67 ± 0.19 µM; GI50 (SKMEL 28 cells; listed as Cer-C6): 11.55 ± 0.07 µM |
| CCCCCCCCCCCCC/C=C/[C@@H](O)[C@H](CO)NCCCC [N-C4 Sphingosine, N-C4 sphingosine] | – | – | – | – | – | 4.88 ± 0.03 µM | 9.6 ± 0.47 µM | 14.1 ± 0.35 µM | 4.9 ± 0.1 µM | 6.49 ± 0.11 µM | 6.88 ± 0.52 µM | 5.08 ± 0.13 µM | 6.13 ± 1.03 µM | – |
| CCCCCCCCCCCCC/C=C/[C@@H](O)[C@H](CO)NCCCCCCCC [N-C8 Sphingosine HCl Salt] | – | – | – | – | – | – | – | – | – | – | – | – | – | GI50 (MCF7 cells; HCl Salt): 4.9 ± 0.02 µM; GI50 (CAKI 1 cells; HCl Salt): 4.47 ± 0.01 µM; GI50 (LEWIS LUNG cells; HCl Salt): 4.82 ± 0.18 µM; GI50 (MCF7/ADR cells; HCl Salt): 4.82 ± 0.18 µM; GI50 (OVCAR 3 cells; HCl Salt): 5.23 ± 0.01 µM; GI50 (A549 cells; HCl Salt): 4.97 ± 0.19 µM; GI50 (HT 29 cells; HCl Salt): 5.78 µM; GI50 (SKMEL 28 cells; HCl Salt): 4.95 ± 0.02 µM |
| CCCCCCCCCCCCC/C=C/[C@@H](O)[C@H](CO)NCCCCCC [N-Hexyl Sphingosine, n-hexyl sphingosine] | – | – | – | – | – | 4.8 ± 0.1 µM | 5.57 ± 1.17 µM | 4.99 ± 0.05 µM | 4.9 ± 0.1 µM | 5.2 ± 0.1 µM | 6.84 ± 3.62 µM | 4.9 ± 0.1 µM | 4.94 ± 0.66 µM | GI50 (MCF7 cells; listed as N-C6 Sphingosine): 4.74 ± 0.09 µM; GI50 (P388/ADR cells): 2.61 ± 1.7 µM; GI50 (P388 cells): 2.59 ± 0.3 µM; GI50 (CAKI 1 cells; listed as N-C6 Sphingosine): 4.28 ± 0.04 µM; GI50 (LEWIS LUNG cells; listed as N-C6 Sphingosine): 4.61 ± 0.04 µM; GI50 (MCF7/ADR cells; listed as N-C6 Sphingosine): 4.69 ± 0.1 µM; GI50 (HT 29 cells; listed as N-C6 Sphingosine): 5.03 ± 0.06 µM; Number of Animals Dead (mice; 12.5 mg/kg): 0/2; Number of Animals Dead (mice; 25 mg/kg): 0/2; Number of Animals Dead (mice; 50 mg/kg): 0/2; Number of Animals Dead (mice; 100 mg/kg): 2/2 |
| CCCCCCCCCCCCC/C=C/[C@@H](O)[C@@H](N)CO [Sphingosine, reference compound] | 12.2 ± 0.1 µM | – | – | 20.2 ± 0.8 µM | – | – | – | – | – | – | – | – | – | GI50 (MCF7 cells; Homo sapiens): 20.4 ± 0.4 µM; GI50 (CAKI 1 cells; Homo sapiens): 39.7 ± 0.8 µM; GI50 (MCF7/ADR cells; Homo sapiens, NCI/ADR-RES): 19.8 µM; GI50 (OVCAR 3 cells; Homo sapiens): 44.6 ± 0.9 µM; GI50 (HT 29 cells; Homo sapiens): 19.3 ± 0.1 µM; GI50 (SKMEL 28 cells; Homo sapiens, SK-MEL-28): 15.6 ± 1 µM |

Reference: patent US5631394A, “Pharmaceutically active ceramide-related compounds” (The Liposome Company, Inc., priority 1995, dated 1997)
